Measured values: patent US4611056A, “Benzo[A]phenothiazines and hydro-derivatives” (Merck Frosst Canada, Inc., priority 1985, dated 1986)
In brackets after ≈: the same amount, converted by molar mass. Where a name gives a salt, the structure may show the parent alone.

What was measured:
[1] = test system: duration of dyspnoea in asthmatic rats (egg albumin challenge); experiment: Asthmatic Rat Assay; type: in vivo; conditions: for ED50 (Asthmatic Rat Assay): p.o.
asthmatic rat = experiment: certain biological tests, amorphous versus crystalline material; type: in vivo
Excerpt: Representative results comparing the two forms of the compound are shown in the accompanying Table IV (where doses are in mg/kg, p.o.).

[2] = NMR study of equilibration of conformational isomers in solution; type: physicochemical; conditions: upon dissolution at room temperature (DMF-d7)
Description: In particular, the methyl group of the acetyl unit appears as four sharp singlets, of approximately equal intensity, at 1.89, 1.91, 1.99 and 2.28 parts per million (ppm).
In another experiment, a sample of the crystalline compound was dissolved in DMF-d7, pre-cooled to -50° C., and the NMR spectrum taken quickly at -50° C. […] As the sample was warmed, these two signals coalesced to a singlet at about 30° C. (1.91 ppm); at about 80° C., a second singlet appeared (2.04 ppm), and at 170° C., these two singlets began to coalesce.
In another NMR study of the compound, five samples were dissolved in DMF-d7 at 25° C., and then stored at -78° C., after being held for 0, 5, 15, 30 and 60 minutes at 25° C.
As a result of the x-ray and NMR studies, it is concluded that there is a single conformational isomer of compound XVIII present in the crystalline form, and that this isomer equilibrated, upon dissolution at room temperature, over a period of approximately one hour, to a mixture of at least four observable conformational isomers which may possibly be represented as follows: [drawing 50]

[3] = test system: LTB4 formation in rat peritoneal PMN leukocytes; experiment: Rat Peritoneal Polymorphonuclear (PMN) Leukocyte Assay (inhibition of LTB4 formation); type: cell-based; conditions: for IC50: Leukocyte, rat peritoneal PMN, 10 μM A-23187, 2 min preincubation at 37° C.
Description: Rats under ether anesthesia are injected (i.p.) with 8 ml of a suspension of sodium cascinate (6 grams in ca. 50 ml water). […] The rats are sacrificed (CO2) and the cells from the peritoneal cavity are recovered by lavage with 20 ml of buffer (Eagles MEM containing 30 mM HEPES adjusted to pH 7.4 with NaOH). The cells are pelleted (350×g, 5 min.), resuspended in buffer with vigorous shaking, filtered through lens paper, recentrifuged and finally suspended in buffer at a concentration of 10 cells/ml. A 500 μl aliquot of PMN suspension and test compound are preincubated for 2 minutes at 37° C., followed by the addition of 10 μM A-23187. The suspension is stirred for an additional 4 minutes then bioassayed for LTB4 content by adding an aliquot to a second 500 μl portion of the PMN at 37° C. The LTB4 produced in the first incubation causes aggregation of the second PMN, which is measured as a change in light transmission. […] The percentage inhibition of LTB4 formation is calculated from the ration of transmission change in the sample to the transmission change in the compound-free control.

[4] = test system: Platelet activating factor (PAF)-induced hyperalgesia in the rat paw; experiment: PAF-Induced Hyperalgesia Assay; type: in vivo, rat (female Sprague-Dawley)
Description: Female Sprague-Dawley rats, 35-40 g were fasted overnight. Platelet activating factor, PAF, (L-lecithin B-acetyl O-alkyl) 1 μg/0.1 ml was given by subplantar injection in the rat paw. The compounds to be evaluated were homogenized in Aqueous Vehicle (0.9% benzyl alcohol, 0.5% Tween 80 and 0.4% methylcellulose) and administered orally in a volume of 0.1 ml, 30 minutes prior to PAF.
Animals were tested 1, 2, 3 and 4 hours after PAF administration. The vocalization threshold, defined as the pressure (mmHg) needed to evoke a squeak response, was recorded for both the injected and contralateral paw. No animal was subjected to pressure greater than 60 mmHg. Hyperalgesia is defined as a decrease in vocalization threshold as compared to a normal paw. Percent inhibition of hyperalgesia was calculated as the proportion of animals with vocalization thresholds greater than 200% of controls.

[5] = 0.5 mg/kg p.o., vehicle 0.4% Tween 80/0.5% Methocel
[6] = 1.5 mg/kg p.o., vehicle 0.4% Tween 80/0.5% Methocel
[7] = 2 mg/kg p.o., vehicle 0.4% Tween 80/0.5% Methocel
[8] = vehicle 0.4% Tween 80/0.5% Methocel
[9] = Rattus norvegicus, po, 1.5 mg/kg p.o., Table III, read-out: Asth. Rat % Inhibition
[10] = Rattus norvegicus, po, 5 mg/kg p.o., Table III, read-out: Asth. Rat % Inhibition

With `CC(=O)OC(C)OC(=O)N1c2ccccc2Sc2cc(O)c3ccccc3c21` (centres unmarked) [Compound XVIII, Amorphous (4 Conformers), 5-hydroxy-12-(1-acetoxyethoxycarbonyl)-12H-benzo[a]phenothiazine] the “% Inhibition (Asthmatic Rat Assay)” value [1, 5] was 48%, the “% Inhibition (Asthmatic Rat Assay)” value ([1]; 0.5 mg/kg p.o., vehicle 1% Methocel) was 36% and the “% Inhibition (Asthmatic Rat Assay)” value [1, 6] was 52%. The “% Inhibition (Asthmatic Rat Assay)” value ([1]; 1.5 mg/kg p.o., vehicle 1% Methocel) was 59%, the “% Inhibition (Asthmatic Rat Assay)” value [1, 7] was 57% and the “ED50 (Asthmatic Rat Assay)” value [1, 8] was 1.0 mg/kg. For the same molecule, the “ED50 (Asthmatic Rat Assay)” value ([1]; vehicle 1% Methocel) was 1.0 mg/kg and the “biological activity over the crystalline material” value (asthmatic rat) was “advantageous biological activity over the crystalline material”.

With `CC(=O)OC(C)OC(=O)N1c2ccccc2Sc2cc(O)c3ccccc3c21` (centres unmarked) [Compound XVIII, Crystalline (1 Conformer)] [5-hydroxy-12-(1-acetoxyethoxycarbonyl)-12H-benzo[a]phenothiazine] the “% Inhibition (Asthmatic Rat Assay)” value [1, 5] was 19%, the “% Inhibition (Asthmatic Rat Assay)” value [1, 6] was 49% and the “% Inhibition (Asthmatic Rat Assay)” value [1, 7] was 61%. The “% Inhibition (Asthmatic Rat Assay)” value ([1]; 2 mg/kg p.o., vehicle 1% Methocel) was 28%, the “% Inhibition (Asthmatic Rat Assay)” value ([1]; 5 mg/kg p.o., vehicle 0.4% Tween 80/0.5% Methocel) was 81% and the “ED50 (Asthmatic Rat Assay)” value [1, 8] was 1.5 mg/kg. For the same molecule, the “period of equilibration of the single conformational isomer to a mixture of at least four conformational isomers” value [2] was “approximately one hour”.

In the case of `CC(=O)N1c2ccccc2Sc2cc(O)c3ccccc3c21` [aromatic, Ac, H, S, 12-acetyl-5-hydroxy-12H-benzo[a]phenothiazine], the IC50 [3] is reported as 1000 to 5000 µg/mL (≈ 3250 to 16300 µM).

Molecule `NCC(=O)Oc1cc2c(c3ccccc13)Nc1ccccc1S2` [aromatic, H, COCH2 NH2 .HCl, S, 5-aminoacetoxy-12H-benzo[a]phenothiazine-hydrochloride salt] has an inhibition in vivo at 1.5 mg/kg [1, 9] of 21% and an inhibition in vivo at 3 mg/kg ([1]; Rattus norvegicus, po, 3 mg/kg p.o., Table III, read-out: Asth. Rat % Inhibition) of 44%.

In the case of `CC(C)(C)C(=O)Oc1cc2c(c3ccccc13)Nc1ccccc1S2` [aromatic, H, COC(CH3)3, S, 5-Trimethylacetoxy-12H-benzo[a]phenothiazine], the inhibition in vivo at 5 mg/kg [1, 10] is reported as 54%.

Molecule `COc1cc2c(c3ccccc13)N(C(C)=O)c1ccccc1S2` [aromatic, Ac, Me, S, 12-Acetyl-5-methoxy-12H-benzo[a]phenothiazine] has an IC50 [3] of 5000 µg/mL (≈ 15600 µM).

Molecule `CC(=O)Oc1cc2c(c3ccccc13)N(C(C)=O)c1ccccc1S2` [aromatic, Ac, Ac, S, 5-Acetoxy-12-acetyl-12H-benzo[a]phenothiazine] has an inhibition in vivo at 5 mg/kg [1, 10] of 47%.

In the case of `CC(=O)Oc1cc2c(c3ccccc13)Nc1ccccc1O2` [aromatic, H, Ac, O, 5-Acetoxy-12H-benzo[a]phenoxazine], the inhibition in vivo at 5 mg/kg [1, 10] is reported as 44%.

With `COc1cc2c(c3ccccc13)N(C)c1ccccc1S2` [aromatic, Me, Me, S, 5-methoxy-12-methyl-12H-benzo[a]phenothiazine] the “PAF Induced Hyperalgesia % Inhibition” value ([4]; 1 mg/kg p.o.) was 40%, the “PAF Induced Hyperalgesia % Inhibition” value ([4]; 3 mg/kg p.o.) was 80% and the IC50 [3] was 5000 µg/mL (≈ 17000 µM).

Work on `CC(=O)Oc1cc2c(c3ccccc13)Nc1ccccc1S2` [aromatic, H, Ac, S, 5-acetoxy-12H-benzo[a]phenothiazine] yielded an ED50 ([1]; Rattus norvegicus, po, Table III, read-out: Asth. Rat ED50) of 4 mg/kg, an ED50 ([4]; Rattus norvegicus, Platelet, po) of 0.145 mg/kg and an IC50 [3] of 25 to 50 µg/mL (≈ 81.3 to 163 µM).

`O=C(Oc1cc2c(c3ccccc13)Nc1ccccc1S2)c1ccccc1` [aromatic, H, COPh, S, 5-Benzoyloxy-12H-benzo[a]phenothiazine] gave an inhibition in vivo at 5 mg/kg [1, 10] of 18%.

`Oc1cc2c(c3ccccc13)Nc1ccccc1S2` [aromatic, H, H, S, 5-hydroxy-12H-benzo[a]phenothiazine] gave an inhibition in vivo at 1.5 mg/kg [1, 9] of 54% and an IC50 [3] of 20 to 100 µg/mL (≈ 75.4 to 377 µM).

In the case of `CC(=O)OC(C)OC(=O)N1c2ccccc2Sc2cc(O)c3ccccc3c21` (centres unmarked) [aromatic, drawing 52, H, S, 5-hydroxy-12-(1-acetoxyethoxycarbonyl)-12H-benzo[a]phenothiazine], the inhibition in vivo at 1.5 mg/kg [1, 9] is reported as 49% and the “PAF Induced Hyperalgesia % Inhibition” value ([4]; 3 mg/kg p.o.) is reported as 60%.

For `CCOP(=O)(OCC)Oc1cc2c(c3ccccc13)Nc1ccccc1S2` [aromatic, H, PO(OEt)2, S, Diethyl 12H-benzo[a]phenothiazin-5-yl phosphate], the “PMN IC50” value [3] was 200 to 1000 µg/mL.

In the case of `CC(=O)Oc1cc2c(c3ccccc13)Nc1ccccc1S2(=O)=O` [aromatic, H, Ac, SO2, 5-Acetoxy-12H-benzo[a]phenothiazine-7,7-dioxide], the inhibition in vivo at 5 mg/kg [1, 10] is reported as 42%.

In the case of `O=S1(=O)c2ccccc2Nc2c1cc(O)c1ccccc21` [aromatic, H, H, SO2, 5-Hydroxy-12H-benzo[a]phenothiazine-7,7-dioxide], the inhibition in vivo at 5 mg/kg [1, 10] is reported as 67%.

In the case of `CC(=O)Oc1cc2c(c3ccccc13)N(C)c1ccccc1S2` [aromatic, Me, Ac, S, 5-acetoxy-12-methyl-12H-benzo[a]phenothiazine], the “PAF Induced Hyperalgesia % Inhibition” value ([4]; 1 mg/kg p.o.) is reported as 30-60% and the IC50 [3] is reported as 50 µg/mL (≈ 156 µM).
